The values that follow are results of earlier work, collected in paper PMC6957711 (Journal of Alzheimer's Disease, 2020).

The conditions of data set [1]: Phase III clinical studies.
The next data set deals with tau. To be noted: in vitro.

Turning to `CN(C)c1ccc2c(c1)Sc1cc(N(C)C)ccc1N2.CS(=O)(=O)O.CS(=O)(=O)O` [LMTX, Leuco-Methylthioninium Bis(Hydromethanesulphonate)], the clinical endpoints entry in data set [1] is recorded as “failed to meet its clinical endpoints”. For the compound `CN(C)c1ccc2nc3ccc(=[N+](C)C)cc-3sc2c1` [methylene blue], in the data set with tau, the tau fibril formation entry is recorded as “inhibits” and the tau oligomer formation result is recorded as “accelerates”.
